Data published in patent US12648948B2, “Methods and compositions for treating cancer” (UNITED STATES GOVERNMENT AS REPRESENTED BY THE DEPARTMENT …, priority 2017, dated 2026).

Key:
[1] = system: TNF; test: TNF mRNA (qRT-PCR) and TNF ELISA in glioma cells; type: cell-based, human; conditions: GBM9 and U87EGFRwt, thalidomide 1 μM
Method: Total RNA was isolated by TRIzol Reagent (Ambion). cDNA Reverse Transcription were performed by using High-Capacity cDNA Reverse Transcription Kit (Applied Biosystems). PCR primers were synthesized by IDT (Coralville, IA). Each PCR was carried out in triplicate in a 20 μl volume using SYBR Green Master Mix (Applied Biosystems) for 15 minutes at 95° C. for initial denaturing, followed by 40 cycles of 95° C. for 15 s and 60° C. for 60 s in ViiA 7 Real-Time PCR System (Applied Biosystems). At least two independent experiments were done. Values for each gene were normalized to expression levels of GAPDH mRNA.
2×10^6 cells were incubated in serum-free or EGF free medium containing different concentrations of erlotinib or DMSO. After 48 hours, supernatant and cell lysates were collected. Supernatant medium was concentrated 5-10-fold with Pierce protein concentrator (ThermoFisher). TNF protein concentration in supernatant, cell lysates and tissue extracts was determined by ELISA using a commercial TNF detection kit (ThermoFisher) according to manufacturer's instructions. Additionally, GAS6 protein concentration in supernatant was measured by ELISA kit (LifeSpan BioSciences).

[2] = system: GBM9 subcutaneous tumors; test: Subcutaneous GBM9 xenograft tumor growth; type: in vivo, athymic nude mice; conditions: erlotinib 50 mg/kg oral gavage, SP600125 40 mg/kg i.p., thalidomide 150 mg/kg i.p., daily for 10 days
Method: 4 to 6 weeks old female athymic nude mice were purchased from Charles River Laboratories. The mice were housed in plastic cages (4-5 mice per cage) in a room with a 12 hour day-night cycle. 1×10^6 GBM9 cells were subcutaneously injected into the right flank of each nude mouse. […] The mice were randomly divided into control and treatment groups, mice were treated with drugs using the indicated doses. For combination treatment, both drugs were given concurrently for indicated periods. Tumor dimensions were measured by caliper every two days and tumor volumes calculated by the formula: volume=length×width×width/2. Mice were sacrificed when tumors reached over […] or 24 days from the first day of treatment.

[3] = system: GBM; conditions: cited from earlier work
[4] = mouse, in vivo
[5] = system: U87EGFRwt and U87EGFRvIII cells; test: AlamarBlue cell viability assay, established GBM cell lines; type: cell-based, human; conditions: established GBM cell lines, 72 h; for Cell viability, inhibitor alone: without erlotinib
Method: (§1) Cell viability assay was conducted using AlamarBlue cell viability assay kit (ThermoFisher) following manufacturer's protocol. Cells were cultured in Corning 96-well black plates with clear bottom (5000 cells/well). Drugs were added to cells for 72 hour following detection using POLARstar Omega Microplate Reader (excitation at 544 nm and emission at 590 nm) (BMG LABTECH, Germany).

[6] = system: GBM9 and GBM39 neurospheres; test: AlamarBlue cell viability assay, patient derived GBM neurospheres; type: cell-based, human; conditions: 72 h; for Cell viability, inhibitor combined with erlotinib: erlotinib 100 nM, SP600125, U0126, R428, thalidomide 1 μM, Enbrel 100 nM; for Cell viability, inhibitor alone: without erlotinib, 1 μM
Method: as §1

[7] = system: JNK-Axl-ERK signaling pathway; test: Western blot, erlotinib-induced JNK-Axl-ERK signaling pathway in glioma cells; type: cell-based, human; conditions: GBM9, GBM39 neurospheres and U87EGFRwt cells
Method: Western blot analysis was performed according to standard protocols.

[8] = system: GBM9 cells; test: Annexin-FACS assay and Caspase 3/7 activation; type: cell-based, human; conditions: GBM9 cells, 72 h, Annexin-FACS
Method: Annexin assay was performed by using Annexin—V-FLUOS Staining kit (Roche applied Science). Cells (1×10^6) were plated in 6 well plates and treated with drugs or vehicle alone. After 72 hours cells were trypsinized and washed 2 times with 1×PBS. The cells were incubated for 15 minutes at room temperature with Propidium Iodide and Annexin—V-FLUOS labeling solution in incubation buffer. Annexin and/or PI positive cells were detected by Flow Cytometry.
Caspase activity in the supernatant was measured using the Caspase-Glo 3/7 Assay (Promega, G8091) following manufacturer's instructions. Briefly, 72 hours after treatments, cells were washed by cold PBS and total cell lysates were prepared. 50 μg of total protein per sample was added per well of a 96 well plate and was incubated with 100 μl Caspase 3/7 reagent for 30 minutes. The luminescence of each sample was measured using a luminometer. All experiments included at least 3 replicates per group and were repeated 3 times.

[9] = system: GBM9 intracranial tumors; test: Orthotopic (intracranial) GBM9 model, survival and bioluminescence imaging; conditions: erlotinib 50 mg/kg oral gavage and/or thalidomide 150 mg/kg i.p., 10 days; repeated with afatinib
Method: For the orthotropic model, 1×10^5 GBM9 cells expressing firefly luciferase were injected into the right corpus striatum of the brains of 6-8-week-old nude mice using a stereotactic frame. […] The mice were treated with erlotinib 50 mg/kg by oral gavage and/or intraperitoneal (i.p.) injection of 150 mg/kg thalidomide for 10 consecutive days. Bioluminescence imaging (BLI) was performed to record the growth of tumor every 5 days. Kaplan-Maier survival curves were calculated using GraphPad Prism 7.0 software. Mice were monitored and sacrificed when neurological signs appeared or after 40 days.

[10] = system: JNK-Axl-ERK signaling axis; test: Signal transduction in intracranial GBM9 tumors (Western blot, IHC); type: in vivo, mice; conditions: thalidomide given with erlotinib
Method: To detect the in vivo levels of TNF, 1×10^6 GBM9 cells were injected into the right flanks of nude mice. When the subcutaneous tumor reached a volume of around 200 mm^3, the mice were treated with erlotinib to monitor the upregulation of TNF protein. The animals were dosed consecutively for 1, 2, 7 or 14 days and then sacrificed. The animals without treatment were considered as control (0-day treatment). Tumor tissues were rinsed in PBS and protein was extracted to analyze the TNF levels using ELISA and also used for western blot. To detect the protein expression in mice brain tumor tissues upon drug treatment, the same procedure was performed in orthotopic models. Additionally, with orthotopic models, mice were divided into four groups (control gavage group, erlotinib group, thalidomide group and erlotinib plus thalidomide, n=3). After 48 hours treatment tumors were harvested and subjected to Western blot and immunostaining.
Tumors from nude mice brains were fixed in 10% formalin and embedded in paraffin. Paraffin-embedded sections were cut at five-micrometer thickness. Immunohistochemical staining was performed using the ABC streptavidin-biotin method with the Vectastain ABC kit (Vector Laboratories, Burlingame, CA, USA) according to the manufacturer's protocol. Briefly, after deparaffinization and rehydration, endogenous peroxidase activity was quenched by a 10 min incubation in 3% H2O2. For antigen retrieval, the tissue sections were boiled in 10 mM sodium citrate buffer (pH 6.0) for 20 minutes. Binding of primary anti-pERK (1:100, Cell Signaling Technology, 4376) or anti-pJNK antibody (1:200, Cell signaling Technology, 4668) or anti-pAXL(1:400, R&D, AF2228) was carried out overnight at 4° C. The signal was detected by using the Sigmafast 3,3′-Diaminobenzidine tablets (DAB; Sigma, St. Louis MO). The sections were counterstained lightly with hematoxylin. The IHC staining intensity was scored semiquantitatively as: 0=No positive staining; 1=1-25% tumor cells stained, 2=26%-75% tumor cells stained and 3=>75% tumor cells stained.

[11] = system: ERK; test: Western blot, ERK activation (pERK) in glioma cells; conditions: U87EGFRwt cells, serum starved; cetuximab overnight; EGF 50 ng/ml 15 min
Method: Western blot analysis was performed according to standard protocols. In all experiments, before the addition of EGF or erlotinib established cells were cultured overnight in serum free DMEM and primary GBM neurospheres were EGF starved overnight. Cells not treated with EGF or erlotinib were also serum or EGF starved.

[12] = system: EGFR; test: Western blot, EGFR activation in U87EGFRwt cells; type: cell-based, human; conditions: serum starved, cetuximab overnight, EGF 50 ng/ml 15 min
[13] = system: primary embryonic cultures and differentiated PC12 cells; conditions: at dosages that inhibit activation of JNKs, after trophic withdrawal; cited from earlier work
[14] = single-arm phase II trial, GBM patients at first recurrence

## O=C1CCC(N2C(=O)c3ccccc3C2=O)C(=O)N1 (stereo not shown) [thalidomide]
[1]
  Erlotinib-induced increase in TNF secretion in presence of thalidomide: block the erlotinib-induced increase in TNF secretion
[2]
  Growth of subcutaneous tumors: no significant effect on the growth of tumors
[3]; human, in vivo
  Clinical efficacy in GBM patients: without success
[4]
  Body weight of orthotopic models: Body weight losses
[5]
  Cell viability, inhibitor combined with erlotinib: had the same effect
[6]; afatinib 100 nM, thalidomide 1 μM
  Cell viability, thalidomide combined with afatinib: sensitizes
[6]
  Cell viability, inhibitor combined with erlotinib: had the same effect
[7]
  Erlotinib-induced activation of the JNK-Axl-ERK signaling pathway in presence of TNF inhibitor: interruption of the erlotinib-induced activation of the JNK-Axl-ERK signaling pathway
[8]
  Number of viable (unstained) cells, inhibitor combined with erlotinib: decreases the number of viable cells
[9]
  Survival of mice: neither erlotinib nor thalidomide alone had a significant effect
[10]; erlotinib 50 mg/kg
  JNK-Axl-ERK signaling axis in intracranial tumors (Western blot): blocked the EGFR inhibition induced upregulation of the TNF-JNK-Axl-ERK signaling axis
[10]; orthotopic model
  pAxl, pJNK and pERK immunostaining of brain sections: inhibits erlotinib induced pAxl-pJNK-pERK activation

## N#CC(=C(/N)Sc1ccccc1N)/C(C#N)=C(\N)Sc1ccccc1N [U0126]
[5]
  Cell viability, inhibitor combined with erlotinib: a combined inhibition of EGFR with ERK or JNK leads to a significant cell death
  Cell viability, inhibitor alone: also resistant to EGFR inhibition or JNK inhibition or ERK inhibition alone
[6]
  Cell viability, inhibitor combined with erlotinib: significant cell death
  Cell viability, inhibitor alone: resistant to JNK or ERK inhibition alone
[8]
  Number of viable (unstained) cells, inhibitor combined with erlotinib: decreases the number of viable cells

## EGF: Recombinant human EGF from Peprotech
[11]
  Basal ERK activation: further increases in EGFR and ERK activation
[12]
  Basal EGFR activation: further increases in EGFR and ERK activation

## Nc1nc(Nc2ccc3c(c2)CC[C@@H](N2CCCC2)CC3)nn1-c1cc2c(nn1)-c1ccccc1CCC2 [R428]
[5]
  Cell viability, inhibitor combined with erlotinib: sensitive to erlotinib
  Cell viability, inhibitor alone: does not affect the viability of these cells
[6]
  Cell viability, inhibitor combined with erlotinib: sensitive to erlotinib
  Cell viability, inhibitor alone: does not affect the viability of these cells
[8]
  Number of viable (unstained) cells, inhibitor combined with erlotinib: decreases the number of viable cells

## COc1cc2ncnc(Nc3ccc(F)c(Cl)c3)c2cc1OCCCN1CCOCC1 [gefitinib]
[3]; [14]
  Median overall survival (OS): about 39 weeks
  Radiographic responses: No radiographic responses

## CCSCc1ccc2c(c1)c1c3c(c4c5cc(CSCC)ccc5n5c4c1n2[C@H]1C[C@](O)(C(=O)OC)[C@]5(C)O1)CNC3=O [CEP-1347]
[13]
  Neuronal survival: promotes neuronal survival

## Etanercept
[5]
  Cell viability, inhibitor combined with erlotinib: sensitive to the effects of EGFR inhibition
[6]
  Cell viability, inhibitor combined with erlotinib: sensitive to the effects of EGFR inhibition
[7]
  Erlotinib-induced activation of the JNK-Axl-ERK signaling pathway in presence of TNF inhibitor: interruption of the erlotinib-induced activation of the JNK-Axl-ERK signaling pathway
[8]
  Number of viable (unstained) cells, inhibitor combined with erlotinib: decreases the number of viable cells
